Here are results for 6 compounds from US12285470B2, “Trim proteins and galectins cooperate and codirect autophagy and are useful in the treatment of autophagy related diseases” (UNM RAINFOREST INNOVATIONS, priority 2016, dated 2025).

Data set [1] concerns HeLa cells. Nature of the data set: High content microscopy of LC3 and ubiquitin puncta after lysosomal damage. The format is cell-based. As to the method: (§1) High content microscopy with automated image acquisition and quantification was carried out using a Cellomics HCS scanner and iDEV software (Thermo) in 96-well plates (Mandell et al., 2014). Immunofluorescence confocal microscopy was performed using an LSM510 confocal microscope and Zeiss software package. For quantification of puncta or total cell fluorescence, image J was used as described previously (Chauhan et al., 2015). For quantifying cell death, HeLa and derivative cells treated with 15 μM siramesine for 12 h were incubated with 7AAD (BD Pharmingen™; cat #559925) for 30 min and fluorescence of 7AAD bound to nuclear DNA measured in a flow cytometer.

The subject of another data set is TFEB. Nature of the data set: High content analysis of TFEB nuclear translocation. Format: cell-based. To be noted: HeLa cells, lysosomal damage. As to the method:
as §1

The test system of another data set is mTOR. Nature of the data set: S6K1 phosphorylation (mTOR target) immunoblot in HeLa cells. To be noted: 1 mM, 2h. Format: cell-based. The method, then:
(§2) Immunoblots and co-IPs assays for endogenous or exogenously expressed proteins were carried out as described previously (Chauhan et al., 2015). For immunoprecipitation experiments with exogenously expressed proteins, 293T cells were transfected with 5 μg of expression constructs by calcium phosphate for 24 h and lysed on ice using NP-40 buffer (Invitrogen) containing protease inhibitor cocktail (Roche, cat #11697498001) and […] (Sigma, cat #93482). Lysates were mixed with antibody (2-3 μg) incubated at 4° C. for 2 h followed by incubation with protein G Dynabeads (Life technologies) for 2 h at 4° C. Beads were washed four times with PBS and then boiled with SDS-PAGE buffer for analysis of interacting protein by Immunoblotting. Input lanes contained 10% of material unless otherwise indicated.
(In general: Immunoblotting shows a protein as a band on a membrane.)

A further data set concerns DEPTOR. Nature of the data set: DEPTOR levels in extracts of HeLa cells. To be noted: 1 mM, 2h. The format is cell-based. The method, then:
as §2

Data set [2] concerns HeLa cells. As to the kind of experiment: Cell death by 7AAD nuclear staining, flow cytometry. Format: cell-based. The method, then:
as §1
(In general: A flow cytometer gives signals particle by particle.)

For another data set, the system named is THP-1 cells. As to the kind of experiment: Confocal microscopy of TRIM16 puncta in THP-1 cells. Format: cell-based. To be noted: 0.5 mM. As to the method: as §1
In data set [3] the test system is HeLa cells. As to the kind of experiment: Confocal microscopy of TRIM16 puncta in HeLa cells. The format is cell-based. The method, then:
as §1

Data set [4] deals with HeLa cells. To be noted: Petersen et al., 2013; cited from earlier work.
The next data set concerns Mtb Erdman. More on the design: species or system C57BL/6J mice. To be noted: mouse, in vivo.
For data set [5], the system named is primary murine bone marrow-derived macrophages (BMMs). As to the kind of experiment: Oxygen consumption rate (Seahorse) in bone marrow-derived macrophages. The format is cell-based.
The subject of data set [6] is HEK293 cells with YFP-Gal fusion. Nature of the data set: YFP-Galectin puncta formation by high content microscopy. The format is cell-based. To be noted: 100 μM, 1h. An excerpt:
Data, means±SD; n=1000 cells per condition; n>3; ANOVA, Tukey's t test vs. control, *p<0.05.**p<0.01.
a) Screen set up. […] Given that the endomembrane damage protection is a highly conserved process, we will use stable (Flp-In) YFP-Gal8 and YFP-Gal9 293A cells. […] In THP-1 cells, we will use endogenous Gal8 and Gal9 responses to lysosomal damage control. […] Quantification of target 1 (Gal8) and target II (Gal9) intracellular objects (Gal8 puncta) will be done by automated HC microscopy on our Cellomics Array Scanner system and processed, as we have recently published^99. We will use in primary tests parameters of 20 fields per well and >500 valid primary objects per well, corresponding to parameters that follow Z values of >0.5^155 in positive controls (100 μM GPN; 2 mM LLOMe) vs. negative controls (DMSO). For secondary tests of positive hits, 49 field/plate will be examined.

Data set [7] relates to THP-1 macrophages. Nature of the data set: Galectin puncta formation in THP-1 macrophages. The format is cell-based. To be noted: 250 μM, 2h.
The test system of data set [8] is THP-1 macrophages. Nature of the data set: Lysosomal damage readouts (cathepsin B activity, LysoTracker Red) in THP-1 macrophages. The format is cell-based.
In the next data set the test system is AMPK. As to the kind of experiment: AMPK activation response in THP-1 macrophages. To be noted: cells KD for Gal9. Format: cell-based.
Data set [9] in a line: Blood levels of rapamycin by mass spectrometry in mice on eRAPA chow. To be noted: 42 ppm eRAPA dose in chow; n=8 animals, mean±SD (±35 ng/ml).

SMILES strings stand for the structures. Where a SMILES comes first, the peptide text is derived from it. The star is where a group is joined. βNA = c1ccc2cc(N*)ccc2c1

For the compound `COC(=O)[C@H](CC(C)C)NC(=O)[C@@H](N)CC(C)C` [LLOMe, Leu-Leu-O-Me], the “LC3 response (endogenous LC3B puncta)” value in the data set with HeLa cells [1] was “consistent LC3 dose response”. Further, the “abundance of ubiquitin puncta” value in the data set with HeLa cells [1] (high content microscopy) is recorded as “Dose-dependent increase”. Moreover, in the data set on TFEB, the “TFEB translocation to the nucleus” value is “translocated to the nucleus”. Moreover, the “mTOR activity (S6K1 phosphorylation)” value in the data set with mTOR is reported as “inhibited”. In the data set with DEPTOR, the “cellular DEPTOR level” value was “increased”. Moreover, the lysosomal cell death entry in the data set on HeLa cells [2] (HeLa cells) is reported as “cannot cause significant lysosomal cell death”. Also, in the data set on THP-1 cells, the “TRIM16 puncta formation in leukocytes” value was “morphologically prominent”.

For `Fc1ccc(-n2cc(CCCCN3CCC4(CC3)OCc3ccccc34)c3ccccc32)cc1` [siramesine], the “sensitivity to cell death in TRIM16KO HeLa cells vs HeLa” value with HeLa cells [2] (15 μM, 12 h, 7AAD) is “increased sensitivity to cell death”. Moreover, in the data set on HeLa cells [3], the “TRIM16 puncta formation in HeLa cells” value is given as “formation of TRIM16 puncta that colocalized with LC3B”. In addition, the “cell death in HeLa cells (literature)” value in the data set with HeLa cells [4] is on record as “can promote cell death”.

Turning to `Nc1c(Br)cc(Br)cc1CN[C@H]1CC[C@H](O)CC1` [ambroxol], in the data set on Mtb Erdman, the “effect on Mtb lung CFU in combination with rifampicin” value is “synergism”.

In the case of `NCC(=O)N[C@@H](Cc1ccccc1)C(=O)Nc1ccc2ccccc2c1` [GPN, Gly-Phe-naphthylamide] (H-Gly-Phe-βNA), the “oxygen consumption rate (OCR)” value in [5] is listed as “alters”. In data set [6], the “cytoplasmic Galectin puncta formation response” value is “Gal3, Gal8 and Gal9 give the most robust response”.

As for `CN(C)C(=N)N=C(N)N` [metformin], in the data set with THP-1 macrophages [7], the Galectin puncta formation entry is “causes Gal3, Gal8, and Gal9 puncta formation”. In addition, in the data set on THP-1 macrophages [8] (THP-1 macrophages), the “LysoTracker Red stain” value was “Reduction” and the “lysosomal cathepsin B activity” value is reported as “loss of activity”. In addition, in the data set on THP-1 macrophages [8] (preliminary studies), the lysosomal damage result is given as “causes lysosomal damage”. Moreover, the AMPK activation entry in the data set with AMPK was “Gal9-dependent AMPK activation”.

With `CO[C@H]1C[C@@H]2CC[C@@H](C)[C@@](O)(O2)C(=O)C(=O)N2CCCC[C@H]2C(=O)O[C@H]([C@H](C)C[C@@H]2CC[C@@H](O)[C@H](OC)C2)CC(=O)[C@H](C)/C=C(\C)[C@@H](O)[C@@H](OC)C(=O)[C@H](C)C[C@H](C)/C=C/C=C/C=C/1C` [rapamycin], the “blood levels of rapamycin” value in data set [9] stood at 205 ng/mL.
